What all share (format): in vivo
The subject of one data set is Brassica napus (BRSNW). Nature of the data set: Post-emergence crop plant compatibility, greenhouse pot test. Conditions: 1.25 g/ha, vs untreated controls. The procedure, abridged:
(§1)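 Crop plants grown in sandy loam in the greenhouse were sprayed post-emergence at the one-leaf stage, 2–3 weeks after sowing, with WP or EC formulations as aqueous suspension/emulsion plus 0.5% additive at 600 l/ha. Damage was rated visually about 3 weeks later versus untreated controls (0% = like control, 100% = plants dead).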

The test system of the next data set is Glycine max (GLXMA). The data set is described as above. The procedure, abridged: as §1
In a further data set the test system is Zea mays (ZEAMX). Described as above. Conditions: 1.25 g/ha, vs untreated controls. The procedure, abridged: as §1
For data set [1], the system named is Triticum aestivum (TRZAS). The description is as above. As to conditions: 1.25 g/ha, vs untreated controls. The procedure, abridged:
as §1

The subject of data set [2] is Echinochloa crus-galli (ECHCG). In words: Pre-emergence herbicidal action, greenhouse pot test. Conditions: 80 g/ha, scored after about 3 weeks. The text has this:
(§2) Seeds of monocotyledonous and dicotyledonous weed plants and crop plants were placed in plastic or organic planting pots and covered with soil. The compounds of the invention, formulated in the form of wettable powders (WP) or as emulsion concentrates (EC), were then applied to the surface of the covering soil as aqueous suspension or emulsion with addition of 0.5% additive at a water application rate equivalent to 600 l/ha (converted). After the treatment, the pots were placed in a greenhouse and kept under good growth conditions for the test plants. After about 3 weeks, the effect of the preparations was scored visually in comparison with untreated controls as percentages. For example, 100% activity=the plants have died, 0% activity=like control plants.
(§3) Tables B1 to B10 below show the effects of selected compounds of the general formula (I) according to Tables I.1 to I.33 on various harmful plants and at an application rate corresponding to 80 g/ha and less, which were obtained by the experimental method specified above. The appendices “a”, “b” and “c” give differentiation by different dosage with otherwise the same harmful plants tested.

The subject of data set [3] is Matricaria inodora (MATIN). The description is as above. As to conditions: scored after about 3 weeks.
Text: as §2, §3

In data set [4] the test system is Digitaria sanguinalis (DIGSA). Described as above. Conditions: scored after about 3 weeks.
Text: as §2, §3

Data set [5] relates to Pharbitis purpurea (PHBPU). The data set is described as above. As to conditions: scored after about 3 weeks.
Text: as §2, §3

Data set [6] relates to Abutilon theophrasti (ABUTH). The description is as above. As to conditions: scored after about 3 weeks.
Text: as §2, §3

The test system of the next data set is Lolium rigidum (LOLRI). Described as above. As to conditions: 80 g/ha, scored after about 3 weeks.
Text: as §2, §3

In a further data set the test system is Avena fatua (AVEFA). The description is as above. As to conditions: 80 g/ha, scored after about 3 weeks.
Text: as §2, §3

Data set [7] concerns Alopecurus myosuroides (ALOMY). Described as above. Conditions: scored after about 3 weeks.
Text: as §2, §3

In data set [8] the test system is Amaranthus retroflexus (AMARE). Described as above. As to conditions: scored after about 3 weeks.
Text: as §2, §3

For another data set, the system named is Veronica persica (VERPE). The data set is described as above. Conditions: scored after about 3 weeks.
Text: as §2, §3

The structures appear in SMILES notation.

On to `COCCOC(=O)COc1ccccc1Oc1cc(-n2c(=O)cc(C(F)(F)F)n(C)c2=O)c(F)cc1Cl` [I.7-1, 2-Methoxyethyl (2-{2-chloro-4-fluoro-5-[3-methyl-2,6-dioxo-4-(trifluoromethyl)-3,6-dihydropyrimidin-1(2H)-yl]phenoxy}phenoxy)acetate], for which the “Post-emergence action against BRSNW (crop plant compatibility)” value with Brassica napus (BRSNW) is on record as 20%. The “Post-emergence action against GLXMA in %” value with Glycine max (GLXMA) (1.25 g/ha), in the data set with Glycine max (GLXMA) (5 g/ha) and in the data set on Glycine max (GLXMA) (20 g/ha) was 10% throughout. Also, in the data set with Zea mays (ZEAMX), the “Post-emergence action against ZEAMX (crop plant compatibility)” value came to 20%. The “Post-emergence action against TRZAS (crop plant compatibility)” value in data set [1] amounted to 20%. Further, the “Pre-emergence action against ECHCG in %” value in [2] turned out to be 90%. Moreover, the “Pre-emergence action against MATIN in %” value in [3] (20 g/ha) and in [3] (80 g/ha) was 100% in each case. The “Pre-emergence action against DIGSA in %” value in data set [4] (20 g/ha) and in data set [4] (80 g/ha) was 100% each time. The “Pre-emergence action against PHBPU in %” value in [5] (20 g/ha) and in [5] (80 g/ha) was 100% each time. Moreover, the “Pre-emergence action against ABUTH in %” value in data set [6] (20 g/ha) and in data set [6] (80 g/ha) was 100% throughout. Moreover, in the data set on Lolium rigidum (LOLRI), the “Pre-emergence action against LOLRI in %” value stood at 100%. Also, in the data set on Avena fatua (AVEFA), the “Pre-emergence action against AVEFA in %” value turned out to be 100%. Moreover, the “Pre-emergence action against ALOMY in %” value in data set [7] (20 g/ha) is 80%; in [7] (80 g/ha), 100%. In addition, the “Pre-emergence action against AMARE in %” value in data set [8] (20 g/ha) and in data set [8] (80 g/ha) was 100% each time. The “Pre-emergence action against VERPE in %” value with Veronica persica (VERPE) (20 g/ha) and with Veronica persica (VERPE) (80 g/ha) was 100% in each case.

The values are drawn from patent publication US20240025862A1, “SUBSTITUTED N-PHENYLURACILS AND SALTS THEREOF, AND USE THEREOF AS HERBICIDAL ACTIVE SUBSTANCES” (Bayer Aktiengesellschaft, priority 2020, published 2024).
